Test results reported in patent US20110184004A1, “PREDICTIVE MARKER FOR EGFR INHIBITOR TREATMENT” (priority 2007, published 2011).
Entries after “also recorded” stand apart in the source; their conditions may differ.

Tests used:
[1] = patients with cancer, 150 mg/day dose; 500 ng/ml is the average plasma concentration targeted for clinical efficacy; cited from earlier work
NSCLC [2] = details: NSCLC patients for whom standard therapy for advanced disease has failed; single agent versus placebo; 150 mg/day; cited from earlier work
epithelial tumours = details: cited from earlier work
advanced NSCLC = test: Open-label Phase II predictive marker study of Tarceva monotherapy, response by RECIST; format: in vivo, human; details: 102 analysed patients, oral 150 mg/day
Method: Clinical benefit was defined as either having an objective response, or disease stabilization for ≧12 weeks.
Based on the experience from the BR.21 study, benefiting population was defined as either having objective response, or disease stabilization for 12 weeks. Clinical and microarray datasets were analyzed according to a pre-defined statistical plan.
Overview of Study Design and Dosing Regimen This was an open-label, predictive marker identification Phase II study. The study was conducted in approximately 26 sites in about 12 countries. 264 patients with advanced NSCLC following failure of at least one prior chemotherapy regimen were enrolled over a 12 month period. […] Dose reductions were permitted based on tolerability to drug therapy. Clinical and laboratory parameters were assessed to evaluate disease control and toxicity. Treatment continued until disease progression, unacceptable toxicity or death. The study design is depicted in FIG. 1.
The RECIST (Uni-dimensional Tumour Measurement) criteria were used to evaluate response. These criteria can be found under the following link: http://www.eortc.be/recist/
Note that: To be assigned a status of CR or PR, changes in tumour measurements must be confirmed by repeated assessments at least 4 weeks apart at any time during the treatment period.
In the case of SD, follow-up measurements must have met the SD criteria at least once after study entry at a minimum interval of 6 weeks.
In the case of maintained SD, follow-up measurements must have met the SD criteria at least once after study entry with maintenance duration of at least 12 weeks.
Based on these parameters, data from 20 arrays were excluded from analysis. Thus data from a total of 102 arrays representing 102 patients was included in the analysis.

NSCLC [3] = details: cited from earlier work
NSCLC [4] = details: second line therapy of NSCLC; cited from earlier work
[5] = advanced NSCLC after failure of at least one chemotherapy, RECIST
[6] = clinical benefit = objective response or disease stabilization for ≧12 weeks

Compound: C#Cc1cccc(Nc2ncnc3cc(OCCOC)c(OCCOC)cc23)c1 [Tarceva, erlotinib]
- Drug levels in plasma [1]: > 500 ng/mL
- Survival (NSCLC [2]): significantly prolongs and improves the survival; also recorded: survival benefit
- Safety and tolerability (epithelial tumours; early clinical data, doses that provide the targeted effective concentration): safe and generally well tolerated
- Clinical activity (remissions) (epithelial tumours; previously treated patients with head and neck cancer and NSCLC): capable of inducing durable partial remissions
- Best Response PD (advanced NSCLC; [5]): 49 (48.0%) n (%)
- Best Response PR (advanced NSCLC; [5]): 6 (5.9%) n (%)
- Best Response SD (advanced NSCLC; [5]): 31 (30.4%) n (%)
- Clinical Benefit NO (advanced NSCLC; [6]): 81 (79.4%) n (%)
- Clinical Benefit YES (advanced NSCLC; [6]): 21 (20.6%) n (%)

Compound: CC(=O)O[C@@]12CO[C@@H]1C[C@H](O)[C@@]1(C)C(=O)[C@H](O)C3=C(C)[C@@H](OC(=O)[C@H](O)[C@@H](NC(=O)OC(C)(C)C)c4ccccc4)C[C@@](O)([C@@H](OC(=O)c4ccccc4)[C@H]21)C3(C)C [docetaxel]
- Survival, second line (NSCLC [3]; NSCLC after failure of cisplatin-based first-line regimens, all ages, ECOG performance status 0, 1 or 2, versus best supportive care): improved survival
- Survival, third-line treatment or beyond (NSCLC [3]; patients receiving docetaxel as third-line treatment or beyond): no prolongation of survival

Compound: Nc1nc2[nH]cc(CCc3ccc(C(=O)N[C@@H](CCC(=O)O)C(=O)O)cc3)c2c(=O)[nH]1 [pemetrexed]
- Efficacy compared with docetaxel (NSCLC [4]): clinically equivalent efficacy
- Side effects compared with docetaxel (NSCLC [4]): significantly fewer side effects
